Laboratory results reported in publication PMC4308083, “Cytokine-Induced Loss of Glucocorticoid Function: Effect of Kinase Inhibitors, Long-Acting β2-Adrenoceptor Agonist and Glucocorticoid Receptor Ligands” (PLoS ONE, 2015).
Read-outs that look alike come from different tables or passages of the source. Each block holds one compound with its values, some of them ahead of it.

Tests used:
[1] = molecular target: T1, glucocorticoid receptor (NR3C1) (Homo sapiens, UniProt P04150); assay: 2×GRE luciferase reporter activation by NR3C1 ligands in BEAS-2B cells; type: cell-based; details: for E max (% Dex), +TNF / pEC50 (M), +TNF: TNF 10 ng/ml pre-treatment 1 h
T1 construct: BEAS-2B cells stably transfected with a glucocorticoid response element (2×GRE) driven luciferase reporter plasmid; endogenous in cells; host or cells: BEAS-2B human bronchial epithelial cells stably carrying a 2×GRE luciferase reporter
T1 sequence (P04150 1-777): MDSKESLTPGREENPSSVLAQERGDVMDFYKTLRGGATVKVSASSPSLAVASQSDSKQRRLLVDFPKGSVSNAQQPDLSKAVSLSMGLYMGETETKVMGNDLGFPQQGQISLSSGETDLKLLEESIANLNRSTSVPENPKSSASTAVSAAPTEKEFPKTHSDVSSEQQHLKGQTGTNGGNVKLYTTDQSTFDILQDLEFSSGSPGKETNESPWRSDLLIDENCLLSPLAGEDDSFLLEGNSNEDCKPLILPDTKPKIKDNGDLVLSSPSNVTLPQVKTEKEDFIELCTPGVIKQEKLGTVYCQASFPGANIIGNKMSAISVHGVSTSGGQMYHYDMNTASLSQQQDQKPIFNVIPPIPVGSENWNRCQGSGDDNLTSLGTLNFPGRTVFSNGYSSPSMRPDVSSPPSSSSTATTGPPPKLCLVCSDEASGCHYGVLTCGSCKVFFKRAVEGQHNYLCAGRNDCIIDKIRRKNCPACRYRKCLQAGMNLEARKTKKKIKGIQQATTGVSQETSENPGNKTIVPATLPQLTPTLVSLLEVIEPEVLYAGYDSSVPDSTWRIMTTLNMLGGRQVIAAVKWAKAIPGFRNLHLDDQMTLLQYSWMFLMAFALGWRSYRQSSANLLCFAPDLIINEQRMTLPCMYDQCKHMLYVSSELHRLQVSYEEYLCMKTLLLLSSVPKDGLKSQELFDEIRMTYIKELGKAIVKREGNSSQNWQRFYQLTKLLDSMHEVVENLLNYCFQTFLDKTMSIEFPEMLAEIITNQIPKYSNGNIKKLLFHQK
Protocol: (§1) BEAS-2B cells stably transfected with a glucocorticoid response element (2×GRE) driven luciferase reporter plasmid, pGL3.neo.TATA.neo [23], were cultured in medium containing 0.25 mg/ml G-418 (Promega, Madison, WI). Cells were grown to confluence in 24 or 48 well plates and incubated overnight in serum-free media prior to experiments. Cells were harvested in reporter lysis buffer and luciferase assays performed according to the manufacturer’s instructions (Firefly Luciferase Assay Kit; Biotium; Hayward, CA) using a 20/20n luminometer (Promega).
Cells were harvested 6 h after NR3C1 ligand addition for luciferase assay.
(§2) Cells were harvested after 6 h for luciferase assays. Data (n = 7), expressed as fold activation, are plotted as means ± S.E. Lines of best fit were added in panel B. Statistical analyses were performed by ANOVA with a Dunnett’s test comparing each NR3C1 ligand alone versus in the presence of TNF and/or Form. *, P<0.05; **, P<0.01; ***, P<0.001.

[2] = tested on: CDKN1C, DUSP1, RGS2 and TSC22D3 mRNA in BEAS-2B cells; assay: RT-PCR of glucocorticoid-inducible gene expression in BEAS-2B cells
2×GRE reporter = assay: Modulation of dexamethasone/NR3C1 ligand-induced 2×GRE reporter activation (kinase inhibitors, TNF, formoterol) in BEAS-2B cells; type: cell-based, human; details: for Effect on dexamethasone-induced 2×GRE reporter activation (concentration-response): 30 min pre-treatment, 6 h (Fig. 3B, Fig. 4), JNK inhibitor VIII only at 30 μM, PKC inhibitors above 1 μM
Protocol: as §1
Data (n = 7), expressed as a percentage of Dex activation, are plotted as means ± S.E. BEAS-2B 2×GRE cells were pre-treated for 30 min with the indicated concentrations of B. PS or JNK or C. JNK in the presence or absence of 10 μM PS, before addition of 10 ng/ml TNF. After 1 h, 10 μM Dex was added and cells harvested 6 h later for luciferase assay. […] D+T indicates Dex plus TNF treatment.
Data (n = 3–4), expressed as fold activation, are plotted as means ± S.E. D+T indicates Dex plus TNF treatment.
as §2

[3] = tested on: NFKBIA (IκBα) phosphorylation; assay: Western blot of TNF-induced NFKBIA phosphorylation in BEAS-2B cells; type: cell-based, human; details: 30 min pre-treatment, TNF 2 min, western blot (S1 Fig.), read-out: EC50 for reduction of TNF-induced NFKBIA phosphorylation
Description: Cells were lysed in 1× Laemmli buffer supplemented with phosphatase inhibitors (Sigma-Aldrich) and 1× complete protease inhibitor cocktail (Roche; Indianapolis, IN), size fractionated on 12% acrylamide gels and subsequently electro-transferred onto Hybond enhanced chemiluminescent membranes (GE Healthcare; Waukesha, WI). Membranes were blocked in 5% milk in tris-buffered saline containing 1% tween 20 and probed with antibodies against phospho-jun proto-oncogene (pJUN; pc-Jun) (9164; Cell Signaling Technology; Danvers, MA), nuclear factor of kappa light polypeptide gene enhancer in B-cells inhibitor, alpha (NFKBIA; IκBα) (sc-371; Santa Cruz Biotechnology; Dallas, TX), phospho-NFKBIA (9246; Cell Signaling Technology), phospho-AKT1 (9271S; Cell Signaling Technology), AKT (9272S; Cell Signaling Technology) and GAPDH (4699–9555(ST); AbD Serotec; Raleigh, NC). After washing, membranes were incubated with horseradish peroxidase-conjugated anti-rabbit (111–035–003; Jackson ImmunoResearch Laboratories Inc; West Grove, PA) or anti-mouse immunoglobulin (115–035–003; Jackson ImmunoResearch Laboratories Inc). Detection was by enhanced chemiluminescence (Pierce ECL Western Blotting Substrate; Thermo Fisher Scientific Inc.; Rockford, IL) and visualization by autoradiography. […]

AKT1 phosphorylation = assay: Western blot of AKT1 phosphorylation in BEAS-2B cells; type: cell-based; details: Homo sapiens, 30 min pre-treatment, TNF 10 ng/ml 30 min, western blot (S2 Fig.), read-out: EC50 for block of AKT1 phosphorylation
Description: Cells were lysed in 1× Laemmli buffer supplemented with phosphatase inhibitors (Sigma-Aldrich) and 1× complete protease inhibitor cocktail (Roche; Indianapolis, IN), size fractionated on 12% acrylamide gels and subsequently electro-transferred onto Hybond enhanced chemiluminescent membranes (GE Healthcare; Waukesha, WI). Membranes were blocked in 5% milk in tris-buffered saline containing 1% tween 20 and probed with antibodies against phospho-jun proto-oncogene (pJUN; pc-Jun) (9164; Cell Signaling Technology; Danvers, MA), nuclear factor of kappa light polypeptide gene enhancer in B-cells inhibitor, alpha (NFKBIA; IκBα) (sc-371; Santa Cruz Biotechnology; Dallas, TX), phospho-NFKBIA (9246; Cell Signaling Technology), phospho-AKT1 (9271S; Cell Signaling Technology), AKT (9272S; Cell Signaling Technology) and GAPDH (4699–9555(ST); AbD Serotec; Raleigh, NC). After washing, membranes were incubated with horseradish peroxidase-conjugated anti-rabbit (111–035–003; Jackson ImmunoResearch Laboratories Inc; West Grove, PA) or anti-mouse immunoglobulin (115–035–003; Jackson ImmunoResearch Laboratories Inc). Detection was by enhanced chemiluminescence (Pierce ECL Western Blotting Substrate; Thermo Fisher Scientific Inc.; Rockford, IL) and visualization by autoradiography.
Cells were harvested after 30 min for western blotting and probed for phospho v-akt murine thymoma viral oncogene homolog 1 (pAKT1), AKT1 and glyceraldehyde 3-phosphate dehydrogenase (GAPDH). (PDF) Click here for additional data file.

[4] = tested on: TSC22D3 mRNA in primary HBE cells; assay: RT-PCR of dexamethasone-inducible gene expression in primary human bronchial epithelial (HBE) cells; type: cell-based; details: TNF 10 ng/ml (at 1 h) or IL1B 1 ng/ml (at 18 h), 1 μM dexamethasone
[5] = tested on: TSC22D3 mRNA in primary ASM cells; assay: RT-PCR of dexamethasone-inducible gene expression in primary human airway smooth muscle (ASM) cells; type: cell-based; details: TNF 10 ng/ml or IL1B 1 ng/ml, 1 μM dexamethasone, 6 h
[6] = BEAS-2B 2×GRE reporter, 6 h, percent of 1 μM dexamethasone
[7] = BEAS-2B 2×GRE reporter, no TNF, 6 h, percent of 1 μM dexamethasone
[8] = 100 nM ligand, 10 nM formoterol, 6 h (Fig. 8)
[9] = BEAS-2B 2×GRE reporter, no TNF, 6 h

Compound: O=C(Nc1cc(Cl)cc2c1[nH]c1cnccc12)c1cccnc1 [PS-1145]
- Effect on DUSP1 mRNA expression with dexamethasone plus TNF plus formoterol ([2]; 10 μM PS-1145, 6 h (Fig. 7)): significantly enhanced
- Effect on dexamethasone-induced mRNA expression of CDKN1C, DUSP1, RGS2, TSC22D3 in absence or presence of TNF ([2]; JNK inhibitor VIII 3 or 10 μM, PS-1145 10 μM, 6 h (Fig. 7)): no significant effect
- 2×GRE reporter induction restored in presence of TNF, % of that induced by dexamethasone (2×GRE reporter; 10 μM inhibitor 30 min pre-treatment, TNF 10 ng/ml, dexamethasone, 6 h (Fig. 3A)): 73%
- Effect on dexamethasone-induced 2×GRE reporter activation (concentration-response) (2×GRE reporter; dexamethasone): no effect
- TNF-induced repression reversed to % of the response to dexamethasone (2×GRE reporter; concentration-response, TNF 10 ng/ml, dexamethasone, 6 h (Fig. 3B), repression ~60% without inhibitor): 76%
- EC50 (2×GRE reporter; read-out: EC50 for reversal of TNF-induced repression of 2×GRE reporter, TNF 10 ng/ml, dexamethasone, 6 h (Fig. 3B)): 600 nM
- Additional effect of 10 μM PS-1145 on 2×GRE reporter activity with JNK inhibitor VIII (2×GRE reporter; up to 10 μM JNK inhibitor VIII, TNF, dexamethasone (Fig. 3C)): no obvious additional effect
- EC50 [3]: ~1000 nM

Compound: C[C@@H]1C[C@H]2[C@@H]3C[C@H](F)C4=CC(=O)C=C[C@]4(C)[C@@]3(F)[C@@H](O)C[C@]2(C)[C@@]1(OC(=O)C1C(C)(C)C1(C)C)C(=O)OCC#N [GW870086X]
- RGS2 mRNA expression in the presence of formoterol relative to dexamethasone [2, 8]: significantly lower
- TSC22D3 mRNA expression in the presence of formoterol, or TNF plus formoterol, relative to dexamethasone [2, 8]: significantly lower
- Agonist type on 2×GRE reporter relative to dexamethasone ([1]; BEAS-2B 2×GRE reporter): partial agonists
- pEC50 (M), +TNF ([1]; BEAS-2B 2×GRE reporter, 6 h): 8.0 ± 0.2 * M
- E max (% Dex), +TNF [1, 6]: 29.8 ± 1.4 % Dex
- pEC50 (M), Naive [1, 9]: 8.3 ± 0.1 M
- E max (% Dex), Naive [1, 7]: 50.1 ± 1.1 % Dex

Compound: Cn1c2ccccc2c2c3c(c4c5ccccc5n(CCC#N)c4c21)CNC3=O [Gö6976]
- Effect on dexamethasone-induced 2×GRE reporter activation (concentration-response) (2×GRE reporter; dexamethasone): reduced

Compound: C[S+]([O-])c1ccc(-c2nc(-c3ccncc3)c(-c3ccc(F)cc3)[nH]2)cc1 (centres unmarked) [SB203580]
- Effect on dexamethasone-induced 2×GRE reporter activation (2×GRE reporter; 10 μM inhibitor 30 min pre-treatment, 6 h (Fig. 3A)): no effect

Compound: IL1B: pro-inflammatory cytokine interleukin-1β (R&D systems), used at 1 ng/ml
- Maximal repression of dexamethasone-induced TSC22D3 expression [4]: 62%
- Repression of dexamethasone-induced TSC22D3 expression [5]: 43%

The next lines start with results.

- E max (% Dex), +TNF [1, 6]: 51.0 ± 2.8 % Dex
- E max (% Dex), Naive [1, 7]: 111.2 ± 4.3 % Dex
Compound: CCC(=O)O[C@]1(C(=O)SCF)[C@H](C)C[C@H]2[C@@H]3C[C@H](F)C4=CC(=O)C=C[C@]4(C)[C@@]3(F)[C@@H](O)C[C@@]21C [Fluticasone Propionate]

- Agonist type on 2×GRE reporter relative to dexamethasone ([1]; BEAS-2B 2×GRE reporter): partial agonists
- pEC50 (M), +TNF ([1]; BEAS-2B 2×GRE reporter, 6 h): 7.3 ± 0.0 * M
- E max (% Dex), +TNF [1, 6]: 46.0 ± 0.8 % Dex
- pEC50 (M), Naive [1, 9]: 7.4 ± 0.0 M
- E max (% Dex), Naive [1, 7]: 74.9 ± 1.1 % Dex
Compound: C[C@@H]1C[C@H]2[C@@H]3CCC4=CC(=O)C=C[C@]4(C)[C@@]3(F)[C@@H](O)C[C@]2(C)[C@H]1C(=O)CC#N [RU24858]

- EC50 (AKT1 phosphorylation): ~900 nM
Compound: O=c1cc(N2CCOCC2)oc2c(-c3ccccc3)cccc12 [LY294002, 2-(4-morpholinyl)-8-phenyl-4H-1-benzopyran-4-one]
- Effect on dexamethasone-induced 2×GRE reporter activation (concentration-response) (2×GRE reporter; dexamethasone): less effect

- E max (% Dex), Naive [1]: 109.9 ± 2.6 % Dex
Compound: CCCC1O[C@@H]2C[C@H]3[C@@H]4CCC5=CC(=O)C=C[C@]5(C)[C@H]4[C@@H](O)C[C@]3(C)[C@]2(C(=O)CO)O1 (some centres unmarked) [Budesonide]
